# According to the supplement of paper PMC13380429:
# Key:
# Conditions in all cases: 72 h
# Calu-3 [1] = assay: relative viability EC50 (midpoint between 100% and the lowest measured viability); higher = less toxic
# HepG2 [2] = assay: as above
# Caco-2 [3] = assay: as above
# Vero E6 [4] = assay: as above
# U2OS [5] = assay: as above
# Calu-3 [6] = assay: drug sensitivity score (DSS) for viability; higher = more toxic; extreme values may be limits of the assay
# HepG2 [7] = assay: as above
# Caco-2 [8] = assay: as above
# Vero E6 [9] = assay: as above
# U2OS [10] = assay: as above
# Calu-3 [11] = assay: cell viability relative to DMSO; higher = less toxic
# HepG2 [12] = assay: as above
# Caco-2 [13] = assay: as above
# Vero E6 [14] = assay: as above
# U2OS [15] = assay: as above
smiles,measurement,setting,value
CCCCN(CCCC)CC(O)c1cc(Cl)cc2c1-c1ccc(Cl)cc1/C2=C/c1ccc(Cl)cc1 (stereo not given) [lumefantrine],relative viability EC50,Calu-3 [1],> 10 µM
same,relative viability EC50,HepG2 [2],> 10 µM
same,relative viability EC50,Caco-2 [3],> 10 µM
same,relative viability EC50,Vero E6 [4],> 10 µM
same,relative viability EC50,U2OS [5],> 10 µM
same,drug sensitivity score,Calu-3 [6],0
same,drug sensitivity score,HepG2 [7],0.1
same,drug sensitivity score,Caco-2 [8],0
same,drug sensitivity score,Vero E6 [9],0
same,drug sensitivity score,U2OS [10],0
same,cell viability,Calu-3 [11]; 1 nM,82.9%
same,cell viability,Calu-3 [11]; 10 nM,102%
same,cell viability,Calu-3 [11]; 100 nM,90%
same,cell viability,Calu-3 [11]; 1000 nM,102%
same,cell viability,Calu-3 [11]; 10000 nM,94.4%
same,cell viability,HepG2 [12]; 1 nM,98.9%
same,cell viability,HepG2 [12]; 10 nM,113%
same,cell viability,HepG2 [12]; 100 nM,107%
same,cell viability,HepG2 [12]; 1000 nM,108%
same,cell viability,HepG2 [12]; 10000 nM,84.2%
same,cell viability,Caco-2 [13]; 1 nM,99.8%
same,cell viability,Caco-2 [13]; 10 nM,92.6%
same,cell viability,Caco-2 [13]; 100 nM,101%
same,cell viability,Caco-2 [13]; 1000 nM,94.5%
same,cell viability,Caco-2 [13]; 10000 nM,89.5%
same,cell viability,Vero E6 [14]; 1 nM,102%
same,cell viability,Vero E6 [14]; 10 nM,102%
same,cell viability,Vero E6 [14]; 100 nM,102%
same,cell viability,Vero E6 [14]; 1000 nM,105%
same,cell viability,Vero E6 [14]; 10000 nM,91.2%
same,cell viability,U2OS [15]; 1 nM,101%
same,cell viability,U2OS [15]; 10 nM,101%
same,cell viability,U2OS [15]; 100 nM,103%
same,cell viability,U2OS [15]; 1000 nM,103%
same,cell viability,U2OS [15]; 10000 nM,95.2%
Cc1ccc2c(=O)c3ccccc3n(CCCN)c2c1C,relative viability EC50,Calu-3 [1],1.6 µM
same,relative viability EC50,HepG2 [2],0.777 µM
same,relative viability EC50,Caco-2 [3],1.32 µM
same,relative viability EC50,Vero E6 [4],1.12 µM
same,relative viability EC50,U2OS [5],3.33 µM
same,drug sensitivity score,Calu-3 [6],7.3
same,drug sensitivity score,HepG2 [7],12.4
same,drug sensitivity score,Caco-2 [8],7
same,drug sensitivity score,Vero E6 [9],10.3
same,drug sensitivity score,U2OS [10],5.3
same,cell viability,Calu-3 [11]; 1 nM,97.8%
same,cell viability,Calu-3 [11]; 10 nM,102%
same,cell viability,Calu-3 [11]; 100 nM,104%
same,cell viability,Calu-3 [11]; 1000 nM,81.3%
same,cell viability,Calu-3 [11]; 10000 nM,20.6%
same,cell viability,HepG2 [12]; 1 nM,99.3%
same,cell viability,HepG2 [12]; 10 nM,94.2%
same,cell viability,HepG2 [12]; 100 nM,102%
same,cell viability,HepG2 [12]; 1000 nM,38.2%
same,cell viability,HepG2 [12]; 10000 nM,5.4%
same,cell viability,Caco-2 [13]; 1 nM,100%
same,cell viability,Caco-2 [13]; 10 nM,92.8%
same,cell viability,Caco-2 [13]; 100 nM,91.6%
same,cell viability,Caco-2 [13]; 1000 nM,72.7%
same,cell viability,Caco-2 [13]; 10000 nM,28.5%
same,cell viability,Vero E6 [14]; 1 nM,96.2%
same,cell viability,Vero E6 [14]; 10 nM,99.9%
same,cell viability,Vero E6 [14]; 100 nM,91.7%
same,cell viability,Vero E6 [14]; 1000 nM,57%
same,cell viability,Vero E6 [14]; 10000 nM,3.7%
same,cell viability,U2OS [15]; 1 nM,100%
same,cell viability,U2OS [15]; 10 nM,102%
same,cell viability,U2OS [15]; 100 nM,96.9%
same,cell viability,U2OS [15]; 1000 nM,103%
same,cell viability,U2OS [15]; 10000 nM,1.3%
O=C(O)[C@H](Cc1ccc(Nc2nccc3ccncc23)cc1)NC1=C(Br)C(=O)C12CCCCC2 [CT-7758],relative viability EC50,Calu-3 [1],> 10 µM
same,relative viability EC50,HepG2 [2],> 10 µM
same,relative viability EC50,Caco-2 [3],> 10 µM
same,relative viability EC50,Vero E6 [4],> 10 µM
same,relative viability EC50,U2OS [5],> 10 µM
same,drug sensitivity score,Calu-3 [6],0
same,drug sensitivity score,HepG2 [7],0
same,drug sensitivity score,Caco-2 [8],0
same,drug sensitivity score,Vero E6 [9],0
same,drug sensitivity score,U2OS [10],0
same,cell viability,Calu-3 [11]; 1 nM,108%
same,cell viability,Calu-3 [11]; 10 nM,105%
same,cell viability,Calu-3 [11]; 100 nM,95.3%
same,cell viability,Calu-3 [11]; 1000 nM,89.6%
same,cell viability,Calu-3 [11]; 10000 nM,104%
same,cell viability,HepG2 [12]; 1 nM,99.3%
same,cell viability,HepG2 [12]; 10 nM,95.4%
same,cell viability,HepG2 [12]; 100 nM,105%
same,cell viability,HepG2 [12]; 1000 nM,101%
same,cell viability,HepG2 [12]; 10000 nM,101%
same,cell viability,Caco-2 [13]; 1 nM,97.5%
same,cell viability,Caco-2 [13]; 10 nM,100%
same,cell viability,Caco-2 [13]; 100 nM,88.9%
same,cell viability,Caco-2 [13]; 1000 nM,105%
same,cell viability,Caco-2 [13]; 10000 nM,102%
same,cell viability,Vero E6 [14]; 1 nM,97.6%
same,cell viability,Vero E6 [14]; 10 nM,104%
same,cell viability,Vero E6 [14]; 100 nM,93.3%
same,cell viability,Vero E6 [14]; 1000 nM,98.2%
same,cell viability,Vero E6 [14]; 10000 nM,93.4%
same,cell viability,U2OS [15]; 1 nM,101%
same,cell viability,U2OS [15]; 10 nM,104%
same,cell viability,U2OS [15]; 100 nM,96.6%
same,cell viability,U2OS [15]; 1000 nM,98.6%
same,cell viability,U2OS [15]; 10000 nM,96.5%
CCN(c1ccccc1)c1cc(=NC)n(C)c(C)n1 [ZD-7288],relative viability EC50,Calu-3 [1],> 10 µM
same,relative viability EC50,HepG2 [2],> 10 µM
same,relative viability EC50,Caco-2 [3],> 10 µM
same,relative viability EC50,Vero E6 [4],> 10 µM
same,relative viability EC50,U2OS [5],> 10 µM
same,drug sensitivity score,Calu-3 [6],0
same,drug sensitivity score,HepG2 [7],0
same,drug sensitivity score,Caco-2 [8],0
same,drug sensitivity score,Vero E6 [9],0
same,drug sensitivity score,U2OS [10],0
same,cell viability,Calu-3 [11]; 1 nM,106%
same,cell viability,Calu-3 [11]; 10 nM,101%
same,cell viability,Calu-3 [11]; 100 nM,91.8%
same,cell viability,Calu-3 [11]; 1000 nM,103%
same,cell viability,Calu-3 [11]; 10000 nM,96.9%
same,cell viability,HepG2 [12]; 1 nM,98.1%
same,cell viability,HepG2 [12]; 10 nM,109%
same,cell viability,HepG2 [12]; 100 nM,99.4%
same,cell viability,HepG2 [12]; 1000 nM,102%
same,cell viability,HepG2 [12]; 10000 nM,93.5%
same,cell viability,Caco-2 [13]; 1 nM,103%
same,cell viability,Caco-2 [13]; 10 nM,102%
same,cell viability,Caco-2 [13]; 100 nM,113%
same,cell viability,Caco-2 [13]; 1000 nM,101%
same,cell viability,Caco-2 [13]; 10000 nM,97.3%
same,cell viability,Vero E6 [14]; 1 nM,108%
same,cell viability,Vero E6 [14]; 10 nM,103%
same,cell viability,Vero E6 [14]; 100 nM,99.3%
same,cell viability,Vero E6 [14]; 1000 nM,102%
same,cell viability,Vero E6 [14]; 10000 nM,99%
same,cell viability,U2OS [15]; 1 nM,97.4%
same,cell viability,U2OS [15]; 10 nM,97.6%
same,cell viability,U2OS [15]; 100 nM,103%
same,cell viability,U2OS [15]; 1000 nM,98.7%
same,cell viability,U2OS [15]; 10000 nM,96%
CC1=C(/C=C/C(C)=C/C=C/C(C)=C/C=C/C=C(C)/C=C/C=C(C)/C=C/C2=C(C)C(=O)[C@@H](O)CC2(C)C)C(C)(C)C[C@H](O)C1=O [astaxanthin],relative viability EC50,Calu-3 [1],> 10 µM
same,relative viability EC50,HepG2 [2],> 10 µM
same,relative viability EC50,Caco-2 [3],> 10 µM
same,relative viability EC50,Vero E6 [4],> 10 µM
same,relative viability EC50,U2OS [5],> 10 µM
same,drug sensitivity score,Calu-3 [6],0
same,drug sensitivity score,HepG2 [7],0
same,drug sensitivity score,Caco-2 [8],3.6
same,drug sensitivity score,Vero E6 [9],0
same,drug sensitivity score,U2OS [10],0
same,cell viability,Calu-3 [11]; 1 nM,98.9%
same,cell viability,Calu-3 [11]; 10 nM,97.6%
same,cell viability,Calu-3 [11]; 100 nM,101%
same,cell viability,Calu-3 [11]; 1000 nM,96.4%
same,cell viability,Calu-3 [11]; 10000 nM,99.6%
same,cell viability,HepG2 [12]; 1 nM,84.3%
same,cell viability,HepG2 [12]; 10 nM,102%
same,cell viability,HepG2 [12]; 100 nM,98.9%
same,cell viability,HepG2 [12]; 1000 nM,102%
same,cell viability,HepG2 [12]; 10000 nM,107%
same,cell viability,Caco-2 [13]; 1 nM,103%
same,cell viability,Caco-2 [13]; 10 nM,109%
same,cell viability,Caco-2 [13]; 100 nM,84%
same,cell viability,Caco-2 [13]; 1000 nM,84.8%
same,cell viability,Caco-2 [13]; 10000 nM,81.9%
same,cell viability,Vero E6 [14]; 1 nM,102%
same,cell viability,Vero E6 [14]; 10 nM,96.9%
same,cell viability,Vero E6 [14]; 100 nM,103%
same,cell viability,Vero E6 [14]; 1000 nM,101%
same,cell viability,Vero E6 [14]; 10000 nM,92.1%
same,cell viability,U2OS [15]; 1 nM,97.8%
same,cell viability,U2OS [15]; 10 nM,104%
same,cell viability,U2OS [15]; 100 nM,100%
same,cell viability,U2OS [15]; 1000 nM,93.6%
same,cell viability,U2OS [15]; 10000 nM,98.4%
CCOc1ccccc1OC(c1ccccc1)C1CNCCO1 (stereo not given) [reboxetine],relative viability EC50,Calu-3 [1],> 10 µM
same,relative viability EC50,HepG2 [2],> 10 µM
same,relative viability EC50,Caco-2 [3],> 10 µM
same,relative viability EC50,Vero E6 [4],> 10 µM
same,relative viability EC50,U2OS [5],> 10 µM
same,drug sensitivity score,Calu-3 [6],0
same,drug sensitivity score,HepG2 [7],0
same,drug sensitivity score,Caco-2 [8],0
same,drug sensitivity score,Vero E6 [9],0
same,drug sensitivity score,U2OS [10],0
same,cell viability,Calu-3 [11]; 1 nM,107%
same,cell viability,Calu-3 [11]; 10 nM,96.5%
same,cell viability,Calu-3 [11]; 100 nM,99.4%
same,cell viability,Calu-3 [11]; 1000 nM,104%
same,cell viability,Calu-3 [11]; 10000 nM,94.3%
same,cell viability,HepG2 [12]; 1 nM,105%
same,cell viability,HepG2 [12]; 10 nM,121%
same,cell viability,HepG2 [12]; 100 nM,95.5%
same,cell viability,HepG2 [12]; 1000 nM,106%
same,cell viability,HepG2 [12]; 10000 nM,102%
same,cell viability,Caco-2 [13]; 1 nM,104%
same,cell viability,Caco-2 [13]; 10 nM,97.9%
same,cell viability,Caco-2 [13]; 100 nM,97.1%
same,cell viability,Caco-2 [13]; 1000 nM,104%
same,cell viability,Caco-2 [13]; 10000 nM,104%
same,cell viability,Vero E6 [14]; 1 nM,102%
same,cell viability,Vero E6 [14]; 10 nM,102%
same,cell viability,Vero E6 [14]; 100 nM,102%
same,cell viability,Vero E6 [14]; 1000 nM,98.4%
same,cell viability,Vero E6 [14]; 10000 nM,95.6%
same,cell viability,U2OS [15]; 1 nM,101%
same,cell viability,U2OS [15]; 10 nM,101%
same,cell viability,U2OS [15]; 100 nM,98.8%
same,cell viability,U2OS [15]; 1000 nM,101%
same,cell viability,U2OS [15]; 10000 nM,104%
